Experiment [1] has as its system hamster flank organ hair growth. The experiment in a line: Inhibition of hair growth: hamster flank organ hair mass after thirteen topical applications. In kind it is in vivo, male intact Golden Syrian hamsters. The settings on record: 13 applications; for inhibition at 5 % strength / inhibition at 10 % strength / inhibition at 20 % strength / inhibition at 30 % strength: Mesocricetus auratus, pH 7-8, read-out: % Inhibition (± SEM). Here is the method: A vehicle or carrier was prepared having the following composition:
A group of male intact Golden Syrian hamsters was provided. These animals were considered acceptable models for human beard hair growth in that they display oval shaped flank organs, one on each side, each about 8 mm. in major diameter, which grow thick black and coarse hair similar to human beard hair. These organs produce hair in response to androgens in the hamster. The flank organs of each hamster were depilated by applying a thioglycolate based chemical depilatory (Surgex), and to one organ of each animal was applied 10-25 μl. of vehicle alone once a day, while to the other organ of each animal was applied an equal amount of vehicle containing the analog. After thirteen applications (one application per day for five days a week), the flank organs were shaved and the amount of recovered hair (hair mass) from each was weighed. Percent-reduction of hair growth was calculated by subtracting the hair mass (mg) value of the test compound treated side from the hair mass value of the vehicle treated side; the delta value obtained was then divided by the hair mass value of the vehicle treated side, and the resultant number was multiplied by 100.

Another experiment concerns hamster flank organ. The settings on record: topical; cited from earlier work.
A further experiment concerns hair growth. To be noted: intact males; Table 3, Group VI vs. Group X; cited from earlier work.
The next experiment concerns animal sebaceous glands. To be noted: female vs male; cited from earlier work.
Another experiment concerns sebum excretion. To be noted: topical, cited from earlier work.
[2] abbreviates: 5% by weight, 10-25 μl once a day, pH 7-8.
[3] abbreviates: 10% by weight, 10-25 μl once a day, pH 7-8.
The mark [4] stands for this setting: 20% by weight, 10-25 μl once a day, pH 7-8.
[5] abbreviates: 30% by weight, 10-25 μl once a day, pH 7-8.
The mark [6] stands for this setting: 5% by weight, 10-25 μl once a day, vs vehicle treated side.
The mark [7] stands for this setting: 10% by weight, 10-25 μl once a day, vs vehicle treated side.
The mark [8] stands for this setting: 20% by weight, 10-25 μl once a day, vs vehicle treated side.
Where [9] appears, read: 30% by weight, 10-25 μl once a day, vs vehicle treated side.

Structures can show the parent of a compound that is named as a salt. Where two headings read alike, the source gives them in different places.

One may read the inhibition as the drop in the measured response relative to a control, in per cent.

Regarding `CC(C)(CO)C(O)C(=O)NCCCO` (racemic) [DL-PTYA, D, or DL, Pantothenyl alcohol], the “Hamster Flank Organ Hair Mass, Treated (± SEM)” value in experiment [1] (setting [2]) was 2.670 ± .23 mg; in experiment [1] (setting [3]), 1.490 ± .30 mg; in experiment [1] (setting [4]) it was 1.450 ± .21 mg; in experiment [1] (setting [5]), “.708 ± .13 mg”. Besides, the inhibition at 5 % strength in experiment [1] (setting [6]) is -8.28 ± 7.51%. For the same molecule, in experiment [1] (setting [7]), the inhibition at 10 % strength amounted to 40.3 ± 7.35%. For the same molecule, in experiment [1] (setting [8]), the inhibition at 20 % strength is 51.1 ± 7.49%. The inhibition at 30 % strength in experiment [1] (setting [9]) stood at 70.8 ± 5.95%.

For the molecule `CCC[C@]1(O)CC[C@H]2[C@@H]3CCC4=CC(=O)CC[C@]4(C)[C@H]3CC[C@@]21C` [17β-hydroxy-17α-propylandrost-4-en-3-one], in the experiment with hamster flank organ, the “reduction in hair growth of the hamster flank organ” value was “substantial reduction in hair growth” and the “reduction in the size of the flank organ” value is on record as “reduction in the size of the flank organ”.

Consider `CC(C)(CO)[C@@H](O)C(=O)NCCCO` [D-PTYA, D, or DL, Pantothenyl alcohol], for which the “Hamster Flank Organ Hair Mass, Treated (± SEM)” value in experiment [1] (setting [2]) is listed as 1.069 ± .15 mg; in experiment [1] (setting [3]), 1.095 ± .32 mg; in experiment [1] (setting [4]), “.899 ± .30 mg”; in experiment [1] (setting [5]) it was 1.069 ± .26 mg. Further, the inhibition at 5 % strength in experiment [1] (setting [6]) is 55.9 ± 4.32%. The inhibition at 10 % strength in experiment [1] (setting [7]) was found to be 48.3 ± 11%. In experiment [1] (setting [8]), the inhibition at 20 % strength came to 31.4 ± 13.8%. Also, in experiment [1] (setting [9]), the inhibition at 30 % strength was found to be 34.8 ± 8.49%.

Take `NCCC[C@](N)(C(=O)O)C(F)F` [DFMO, α-difluoromethyl ornithine, reference compound]: the “Hamster Flank Organ Hair Mass, Treated (± SEM)” value in experiment [1] (10% comparison composition, pH 4.0) is recorded as “.631 ± .12 mg”. For the same molecule, the “% Inhibition (± SEM)” value in experiment [1] (10% comparison composition, vs vehicle treated side, pH 4.0) is given as 66.10 ± 7.05%.

Turning to `CC(C)(CO)[C@@H](O)C(=O)NCCC(=O)O` [PTA, DPantothenic acid hemicalcium salt], the “Hamster Flank Organ Hair Mass, Treated (± SEM)” value is “.738 ± .13 mg” in experiment [1] (setting [2]), “.424 ± .11 mg” in experiment [1] (setting [3]), “.270 ± .12 mg” in experiment [1] (setting [4]) and “.160 ± .06 mg” in experiment [1] (setting [5]). For the same molecule, the inhibition at 5 % strength in experiment [1] (setting [6]) amounted to 67.3 ± 5.81%. In experiment [1] (setting [7]), the inhibition at 10 % strength was determined as 71.3 ± 8.96%. Besides, the inhibition at 20 % strength in experiment [1] (setting [8]) was 85.8 ± 5.75%. Also, in experiment [1] (setting [9]), the inhibition at 30 % strength was found to be 92.7 ± 2.76%.

For `CC(C)(CO)[C@H](O)C(=O)NCCC(=O)[O-].[Na+]` [PTAss, D-Pantothenic acid monosodium salt], the “Hamster Flank Organ Hair Mass, Treated (± SEM)” value is recorded as “.644 ± .15 mg” in experiment [1] (setting [2]), “.364 ± .10 mg” in experiment [1] (setting [3]), “.500 ± .10 mg” in experiment [1] (setting [4]) and “.396 ± .95 mg” in experiment [1] (setting [5]). For the same molecule, in experiment [1] (setting [6]), the inhibition at 5 % strength was 72.6 ± 5.18%. Besides, the inhibition at 10 % strength in experiment [1] (setting [7]) is 80.1 ± 4.38%. For the same molecule, in experiment [1] (setting [8]), the inhibition at 20 % strength is 74.2 ± 4.83%. Besides, in experiment [1] (setting [9]), the inhibition at 30 % strength worked out at 79.8 ± 4.75%.

As for `CC(=O)[C@H]1CC[C@H]2[C@@H]3CCC4=CC(=O)CC[C@]4(C)[C@H]3CC[C@]12C` [progesterone], the “effect on inhibition of hair growth” value with hair growth was “doubtful”. Further, the “inhibition of testosterone metabolism and lipogenesis in sebaceous glands” value in the experiment on animal sebaceous glands is reported as “effective in the female but not in the male”. Moreover, the “reducing sebum excretion rates” value with sebum excretion (females) is “effective in reducing sebum excretion rates in females”; in the experiment with sebum excretion (males), “without effect in males”.

The record behind these values is patent US5364885A, “Reduction of hair growth” (priority 1992, dated 1994).
